Data: US20070225268A1, “METHOD TO TREAT NEOPLASMS VIA GADOLINIUM STEREOTACTIC SYNCHROTRON RADIATION” (priority 2005, published 2007)
Several values for one entry are separate records, joined by “and”; a condition that tells them apart may be missing. Equal values may be shown once.

Experiments:
[1] = test system: glioblastoma multiforme cell nuclei; assay: In vivo biodistribution of Gd-DTPA in glioblastoma multiforme patients (ICP-MS, spectromicroscopy); set-up: species or system human; settings: six glioblastoma multiforme patients injected with Gd-DTPA before tumor excision
Description: The present inventors also tested the in vivo biodistribution of Gd-DTPA in six glioblastoma multiforme patients injected with Gd-DTPA before tumor excision. The tumors were frozen and sectioned for ICP-MS and Microscope à Emission de Photoélectrons par Illumination Synchrotronique de Type Onduleur analysis. Evidence for Gd intracellular localization was found within the tumors in all six cases. However, the gadolinium localized in only 6.1% of the cell nuclei analyzed.

F98 brain glioma = settings: intracranial infusion one day before 78.8 keV photons, 15 Gy single dose; cited from earlier work
TB10 cells [2] = assay: X-PEEM (SPHINX) spectromicroscopy of intranuclear Gd; assay type: cell-based, human
Protocol: (§1) Cell Culture and Exposure to Motexafin Gadolinium: Four well-established human glioblastoma multiforme cell lines were used for the in vitro studies: T98G (22), U87 (23), MO59K (24), and TB10 (9, 25). Cells were grown on precut 10 mm×10 mm silicon wafers (Silson, Northhampton, United Kingdom) for X-PEEM spectromicroscopy; on 1 mm×1 mm Si3N4 windows, 100 nm thick (Silson) for STXM spectromicroscopy; on tissue culture-treated polystyrene slides for confocal microscopy; and in Petri dishes for ICP-MS analysis. Subconfluent cultures were exposed to motexafin gadolinium (Pharmacyclics, Sunnyvale, Calif.), formulated at 2.3 mg/mL in 5% aqueous mannitol, and added to the culture medium to a final concentration of 100 μmol/L. Six different exposure times ranging from 0 to 72 hours were used for the ICP-MS time course measurements. For all microscopy experiments exposure times were kept constant at 72 hours. The cell appearance was not altered by motexafin gadolinium exposure.
(§2) After exposure to motexafin gadolinium, the cell cultures on Si substrates for X-PEEM analysis were washed three times with PBS solution to remove free Gd, fixed in 4% paraformaldehyde in PBS for 20 minutes, double-washed in Milli-Q-water, and air dried. At this point, some cell cultures were sputtered with 3-kV argon ions at 10^−5 Torr for 10 minutes; others were not. Sputtering removes the topmost portion of the cell to reveal the inner nuclear compartment of fixed cells (26). Sputtered and unsputtered cells were then ashed in UV/O3 for 140 hours (27). […]
X-PEEM Spectromicroscopy Analysis: X-PEEM spectromicroscopy analysis was done using the Spectromicroscope for Photoelectron Imaging of Nanostructures with X-rays (SPHINX) instrument (Elmitec GmbH, Clausthal, Germany), installed on the HERMON beamline at the Synchrotron Radiation Center (Madison, Wis.). […] Cell and tissue ashing increases gadolinium concentration by a factor of 10; therefore, the detection limit was on the order of ≦100 ppm in all cells analyzed. […]

TB10 cells [3] = assay: STXM spectromicroscopy of intranuclear Gd; assay type: cell-based, human; settings: 139 TB10 cells, 100 μmol/L, 72 hours
Protocol: as §1
as §2, with “(27). Parallel cultures were run and treated identically for ICP-MS measurements of the bulk Gd concentration. Cell cultures for STXM analysis on Si3N4 windows, after motexafin gadolinium exposure, were washed, fixed, washed, and air-dried.” for “(27).”
(§3) STXM Spectromicroscopy Analysis: The STXM instrument on beamline 11.0.2 at the Advanced Light Source in Berkeley uses an undulator source and is optimized for the Gd3d absorption energy. […] Three cell cultures were analyzed, containing 34 T98G cells, 27 MO59K cells, and 139 TB10 cells, respectively. […]

MO59K cells = assay: STXM spectromicroscopy of intranuclear Gd; assay type: cell-based, human; settings: 27 MO59K cells, 100 μmol/L, 72 hours
Protocol: as §1
as §2, with “(27). Parallel cultures were run and treated identically for ICP-MS measurements of the bulk Gd concentration. Cell cultures for STXM analysis on Si3N4 windows, after motexafin gadolinium exposure, were washed, fixed, washed, and air-dried.” for “(27).”
as §3

T98G cells = assay: STXM spectromicroscopy of intranuclear Gd; assay type: cell-based, human; settings: 34 T98G cells, 100 μmol/L, 72 hours
Protocol: as §1
as §2, with “(27). Parallel cultures were run and treated identically for ICP-MS measurements of the bulk Gd concentration. Cell cultures for STXM analysis on Si3N4 windows, after motexafin gadolinium exposure, were washed, fixed, washed, and air-dried.” for “(27).”
as §3

[4] = test system: TB10, MO59K and T98G cells; assay: Confocal fluorescence microscopy of motexafin gadolinium-related fluorescence; assay type: cell-based, human; settings: n=481, 100 μmol/L, 72 hours
Protocol: Cell Culture and Exposure to Motexafin Gadolinium: Four well-established human glioblastoma multiforme cell lines were used for the in vitro studies: T98G (22), U87 (23), MO59K (24), and TB10 (9, 25). Cells were grown on precut 10 mm×10 mm silicon wafers (Silson, Northhampton, United Kingdom) for X-PEEM spectromicroscopy; on 1 mm×1 mm Si3N4 windows, 100 nm thick (Silson) for STXM spectromicroscopy; on tissue culture-treated polystyrene slides for confocal microscopy; and in Petri dishes for ICP-MS analysis. […]
Confocal Microscopy: Three of the four cell lines (TB10, MO59K, and T98G) were analyzed using a Bio-Rad (Richmond, Calif.) MRC 1024ES confocal microscope. This instrument can simultaneously measure the fluorescence from three channels, with excitation wavelengths from the three lines of a krypton/argon laser and emission through three independent barrier filters. […]
The aperture was set for minimal optical section thickness, and laser power and photodetector gain were set to image cell fluorescence within the 8-bit grayscale range of the photodetector. Five consecutive optical sections were obtained vertically through the cells to verify that motexafin gadolinium fluorescence originated from the nucleus and not only from the cytoplasm above or below the nucleus.

[5] = test system: T98G, MO59K and TB10 cells; assay: STXM spectromicroscopy of intranuclear Gd, all cells analyzed; assay type: cell-based, human; settings: overall, n=200
Protocol: as §1, with “exposure. […]” for “exposure.”
as §3

[6] = ICP-MS of Gd in tissue and plasma of glioblastoma multiforme patients; assay type: in vivo, human
Protocol: Tissue samples from three glioblastoma multiforme patients were also analyzed with ICP-MS (Table 1). These were collected from glioblastoma multiforme tissue and plasma for patients 1 and 2, and from tumor necrotic and uninvolved brain areas for the postmortem patient 3. All gadolinium concentrations were normalized to the measured tissue weight and volume. […]

[7] = test system: human glioblastoma multiforme cell lines; assay: Cell appearance after exposure in culture; assay type: cell-based; settings: 100 μmol/L, up to 72 hours
Protocol: as §1

O=C([O-])CN(CCN(CC(=O)[O-])CC(=O)O)CCN(CC(=O)[O-])CC(=O)O.[Gd+3] [Gd-DTPA, gadolinium diethylenetriaminepentaacetic acid]
percentage of cell nuclei analyzed in which gadolinium localized [1]: 6.1%

N.N.[Cl][Pt][Cl] [cis-platinum]
survival rate at one year (F98 brain glioma): 34%

motexafin gadolinium
percentage of Gd-containing nuclei (TB10 cells [2]; TB10, after sputtering (72 cells)): 88% | percentage of Gd-containing nuclei (TB10 cells [2]; TB10, before sputtering (unsputtered, 108 cells)): 92% | percentage of cells with at least one gadolinium pixel in the nucleus (TB10 cells [2]; TB10, n=180, 100 μmol/L, 72 hours): 90% | percentage of cells containing gadolinium in their nuclei (TB10 cells [3]): 88% | percentage of cells containing gadolinium in their nuclei (MO59K cells): 96% | percentage of cells containing gadolinium in their nuclei (T98G cells): 90% | percentage of cells exhibiting motexafin gadolinium-related fluorescence in cytoplasm and nuclei [4]: 100% | percentage of cells with at least one gadolinium pixel in their nuclei [5]: 90% | [Gd] ([6]; Patient 1, Plasma, 2:30 hrs, single dose 10 mg/kg): 3.415 ppm | [Gd] ([6]; Patient 1, Plasma, 5 min, single dose 10 mg/kg): 12.973 ppm | [Gd] ([6]; Patient 1, Plasma, 45 min, single dose 10 mg/kg): 7.349 ppm | [Gd] ([6]; Patient 1, Plasma, 3 hrs, single dose 10 mg/kg): 4.079 ppm | [Gd] ([6]; Patient 1, Plasma, 24 hrs, single dose 10 mg/kg): 1.700 ppm | [Gd] ([6]; Patient 1, Tumor, 2:30 hrs, single dose 10 mg/kg): 7.266 ppm | [Gd] ([6]; Patient 1, Tumor, 3 hrs, single dose 10 mg/kg): 2.475 ppm | [Gd] ([6]; Patient 2, Plasma, 1:14 hrs, single dose 10 mg/kg): 6.536 ppm | [Gd] ([6]; Patient 2, Plasma, 1:30 hrs, single dose 10 mg/kg): 6.309 ppm | [Gd] ([6]; Patient 2, Plasma, 5 min, single dose 10 mg/kg): 14.043 ppm | [Gd] ([6]; Patient 2, Plasma, 45 min, single dose 10 mg/kg): 8.143 ppm | [Gd] ([6]; Patient 2, Plasma, 3 hrs, single dose 10 mg/kg): 5.109 ppm | [Gd] ([6]; Patient 2, Plasma, 24 hrs, single dose 10 mg/kg): 1.770 ppm | [Gd] ([6]; Patient 2, Tumor, 1:11 hrs, single dose 10 mg/kg): 29.728 ppm | [Gd] ([6]; Patient 2, Tumor, 1:18 hrs, single dose 10 mg/kg): 19.580 ppm | [Gd] ([6]; Patient 2, Tumor, 45 min, single dose 10 mg/kg): 22.589 ppm | [Gd] ([6]; Patient 3 (autopsy), Necrosis within tumor, 57 days after the last of multiple doses): 2.144 ppm | [Gd] ([6]; Patient 3 (autopsy), Tumor, 57 days after the last of multiple doses, listed as Motexafin-Gd): 8.542 ppm and 8.022 ppm | cell appearance [7]: not altered
